Data from paper PMC8151276, “An Integrated Approach toward NanoBRET Tracers for Analysis of GPCR Ligand Engagement” (Molecules, 2021).

Legend:
Type in all cases: binding
[1] = biological target: T1, BRS3 (Homo sapiens, UniProt P32247); test: NanoBRET screen HiBiT-BRS3 in HEK293; conditions: BRS3
T1 construct: purchased Promega (in-house HiBiT-GPCR construct library, NanoBRET)
T1 sequence (P32247 1-399): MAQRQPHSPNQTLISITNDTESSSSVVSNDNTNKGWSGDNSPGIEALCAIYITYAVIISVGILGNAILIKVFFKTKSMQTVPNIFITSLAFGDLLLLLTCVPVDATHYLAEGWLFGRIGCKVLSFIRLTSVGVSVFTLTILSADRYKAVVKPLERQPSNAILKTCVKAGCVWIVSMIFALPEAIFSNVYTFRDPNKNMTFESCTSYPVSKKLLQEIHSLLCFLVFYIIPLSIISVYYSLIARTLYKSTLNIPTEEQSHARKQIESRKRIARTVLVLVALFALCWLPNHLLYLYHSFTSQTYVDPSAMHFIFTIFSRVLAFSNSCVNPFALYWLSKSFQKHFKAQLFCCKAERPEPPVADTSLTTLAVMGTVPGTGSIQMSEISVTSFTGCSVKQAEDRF
Description: (§1) Each tracer candidate was screened across the entire library of HiBiT-GPCR constructs using NanoBRET as the detection modality. As depicted in Figure 4A, the specificity of interactions was evaluated through decrease in BRET due to competitive displacement of a bound tracer by excess parental compound. Each tracer was analyzed for binding to each HiBiT-GPCR fusion in the absence and in the presence of competing parental compound. Briefly, HEK293 cells were transfected with HiBiT-GPCR constructs diluted into promoterless DNA to reduce expression and maximize translocation to the cell surface. Each tracer candidate was then screened at concentrations of 1 μM and 0.1 μM across cells expressing these fusions. Cells were treated for 1.5 h with tracer either alone or in the presence of 20 μM competing parental compound (i.e., control). BRET was measured upon addition of purified LgBiT and subsequent complementation with HiBiT genetically fused to a GPCR. The specificity of interactions was assessed through a decrease in BRET signal due to competitive displacement of the bound tracer. To further gauge the robustness of these interactions, the fold response over the control (i.e., BRETtracer/BRETcontrol) was calculated. We chose a 1.5-fold response, which translates to ≥7-fold signal over noise as the minimal threshold required to score an interaction as positive. […]. Below we highlight the screening results obtained for our exemplary fluorescent tracers based on Clozapine, Amitriptyline and AZD1283.
(§2) HiBiT-GPCR DNA constructs were diluted in 10 mM Tris pH 8 to a final concentration of 0.01 μg/μL, arrayed in 96-well plates and stored at −20 °C. For transfection, HEK293 cells were suspended in Opti-MEM (without phenol red) supplemented with 2% fetal bovine serum (Seradigm) and 100 units/mL penicillin–streptomycin (Gibco) at a final concentration of 220,000 cells/mL and dispensed into white 96-well plates at 90 μL/well. Subsequent transfections and screens were carried using an Agilent Bravo Automated Liquid Handling Platform. First, the 96-well HiBiT DNA arrays were diluted 25-fold in Opti-MEM (without serum or phenol red) to a final concentration of 0.0004 μg/μL and 20 μL of the diluted DNAs were transferred into new 96-well plates. Next, promoterless carrier DNA (1 μg/μL) was diluted 25-fold (0.04 μg/μL) and then dispensed into the diluted arrays at 20 μL/well. Following brief mixing, Viafect transfection reagent (Promega) diluted 16-fold into Opti-MEM was dispensed into the plates at 40 μL/well. After mixing by pipetting, plates were incubated for 10 min on the pipetting station deck. The DNA-transfection reagent complexes were then added to plates containing cells. To facilitate the screen, 10 μL of DNA-transfection reagent complexes were added in duplicates to the top 4 and bottom 4 rows, resulting in two identical 48-well arrays per plate. Plates with transfected cells were incubated for 18–20 h at 37 °C/5% CO2. A screen of each tracer across the entire library using two different concentrations requires duplicate plates of transfected cells. Depending on the number of tracers being screened, transfections can be scaled up using the same ratios. The next day, for each tracer, four 20× screening solutions in tracer dilution buffer (Promega) were prepared: two duplicates at final concentration of 20 μM and two duplicates at a final concentration of 2 μM. A competing unmodified compound was added to one of each duplicate at a final concentration of 400 μM. The four resulting solutions were diluted 4-fold in Opti-MEM without serum or phenol red to generate 5× solutions (5 µM and 0.5 µM tracer +/− 100 μM competing compound). To screen the library, a BioTek MultiFlo FX liquid dispenser was used to dispense 22.5 µL of tracer solution to the top 4 rows and 22.5 µL tracer + competing compound solution to the 4 bottom rows. Plates were briefly mixed on an orbital shaker and incubated for 1.5 h at room temperature. […]

[2] = biological target: T2, P2RY13 (Homo sapiens, UniProt Q9BPV8); test: NanoBRET screen HiBiT-P2RY13 in HEK293; conditions: P2RY13
T2 construct: purchased Promega (in-house HiBiT-GPCR construct library, NanoBRET)
T2 sequence (Q9BPV8 1-354): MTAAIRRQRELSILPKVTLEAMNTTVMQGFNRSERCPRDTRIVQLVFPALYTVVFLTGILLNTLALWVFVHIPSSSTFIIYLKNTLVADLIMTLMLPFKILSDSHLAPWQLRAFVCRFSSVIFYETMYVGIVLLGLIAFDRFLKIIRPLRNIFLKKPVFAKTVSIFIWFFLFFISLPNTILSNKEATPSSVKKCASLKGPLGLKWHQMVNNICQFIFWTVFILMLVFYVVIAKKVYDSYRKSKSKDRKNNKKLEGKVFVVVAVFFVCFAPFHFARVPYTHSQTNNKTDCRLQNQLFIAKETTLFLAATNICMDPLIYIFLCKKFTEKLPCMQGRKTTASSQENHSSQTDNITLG
Description: as §1, §2

[3] = biological target: T3, RXFP4 (Homo sapiens, UniProt Q8TDU9); test: NanoBRET screen HiBiT-RXFP4 in HEK293; conditions: RXFP4
T3 construct: purchased Promega (in-house HiBiT-GPCR construct library, NanoBRET)
Description: as §1, §2

[4] = biological target: T4, GALR3 (Homo sapiens, UniProt O60755); test: NanoBRET screen HiBiT-GALR3 in HEK293; conditions: GALR3
T4 construct: purchased Promega (in-house HiBiT-GPCR construct library, NanoBRET)
T4 sequence (O60755 1-368): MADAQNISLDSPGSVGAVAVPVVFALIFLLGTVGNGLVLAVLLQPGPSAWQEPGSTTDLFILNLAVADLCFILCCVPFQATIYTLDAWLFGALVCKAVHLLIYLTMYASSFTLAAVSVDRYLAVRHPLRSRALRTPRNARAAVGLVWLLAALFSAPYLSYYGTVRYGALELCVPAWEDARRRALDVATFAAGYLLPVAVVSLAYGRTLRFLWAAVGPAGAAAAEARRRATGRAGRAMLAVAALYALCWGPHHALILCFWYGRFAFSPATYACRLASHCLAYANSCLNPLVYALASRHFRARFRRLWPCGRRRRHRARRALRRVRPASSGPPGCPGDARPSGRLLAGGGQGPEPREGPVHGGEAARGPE
Description: as §1, §2

[5] = biological target: T5, PTGER4 (Homo sapiens, UniProt P35408); test: NanoBRET screen HiBiT-PTGER4 in HEK293; conditions: PTGER4
T5 construct: purchased Promega (in-house HiBiT-GPCR construct library, NanoBRET)
Description: as §1, §2

T3 sequence (Q8TDU9 whole entry): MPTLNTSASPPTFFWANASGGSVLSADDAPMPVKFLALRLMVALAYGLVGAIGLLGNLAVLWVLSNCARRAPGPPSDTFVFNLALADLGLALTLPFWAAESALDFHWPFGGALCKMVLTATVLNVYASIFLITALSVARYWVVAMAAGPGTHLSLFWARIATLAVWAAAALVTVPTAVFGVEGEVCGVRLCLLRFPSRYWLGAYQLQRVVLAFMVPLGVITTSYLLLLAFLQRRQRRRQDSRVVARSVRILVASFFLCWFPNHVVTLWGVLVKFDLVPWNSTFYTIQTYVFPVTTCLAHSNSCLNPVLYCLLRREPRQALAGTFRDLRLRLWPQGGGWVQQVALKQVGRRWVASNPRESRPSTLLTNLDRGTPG
T5 sequence (P35408 whole entry): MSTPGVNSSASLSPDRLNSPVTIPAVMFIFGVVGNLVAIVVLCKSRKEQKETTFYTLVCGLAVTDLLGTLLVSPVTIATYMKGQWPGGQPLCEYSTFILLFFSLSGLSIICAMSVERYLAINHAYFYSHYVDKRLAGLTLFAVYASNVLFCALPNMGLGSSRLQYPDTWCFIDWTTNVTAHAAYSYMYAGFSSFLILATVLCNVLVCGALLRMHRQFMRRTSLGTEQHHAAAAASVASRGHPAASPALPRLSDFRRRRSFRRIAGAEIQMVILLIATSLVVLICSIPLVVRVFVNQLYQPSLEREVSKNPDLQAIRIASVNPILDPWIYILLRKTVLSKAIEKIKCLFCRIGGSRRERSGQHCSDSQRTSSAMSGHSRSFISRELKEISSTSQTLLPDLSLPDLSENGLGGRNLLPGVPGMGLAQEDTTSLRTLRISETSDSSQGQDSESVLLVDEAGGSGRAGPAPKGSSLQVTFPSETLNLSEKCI

SMILES: CC(C)N(CC[C@H](c1ccccc1)c1cc(CCNC(=O)c2ccc(CNC(=O)CCc3ccc4n3[B-](F)(F)[N+]3=C(c5ccc[nH]5)C=CC3=C4)cc2)ccc1O)C(C)C [Tolterodine-BZ-NB590]
- NanoBRET Fold Response ([1]; tracer 0.1μM): 0.89
- NanoBRET Fold Response ([1]; tracer 1μM): 1.09
- NanoBRET Fold Response ([2]; tracer 0.1μM): 0.89
- NanoBRET Fold Response ([2]; tracer 1μM): 0.94
- NanoBRET Fold Response ([3]; tracer 0.1μM): 1.08
- NanoBRET Fold Response ([3]; tracer 1μM): 0.98
- NanoBRET Fold Response ([4]; tracer 0.1μM): 1.09
- NanoBRET Fold Response ([4]; tracer 1μM): 1.00
- NanoBRET Fold Response ([5]; tracer 0.1μM): 1.02
- NanoBRET Fold Response ([5]; tracer 1μM): 1.04

SMILES: CN1CCN(C2=Nc3cc(Cl)ccc3Nc3ccc(CNC(=O)CCOCCOCCOCCOCCNC(=O)CCc4ccc5n4[B-](F)(F)[N+]4=C(c6ccc[nH]6)C=CC4=C5)cc32)CC1 [Clozapine-b-2-NB590]
- NanoBRET Fold Response ([1]; 0.1μM tracer): 1.01
- NanoBRET Fold Response ([1]; 1μM tracer): 1.02
- NanoBRET Fold Response ([2]; 0.1μM tracer): 1.02
- NanoBRET Fold Response ([2]; 1μM tracer): 0.99
- NanoBRET Fold Response ([3]; 0.1μM tracer): 0.97
- NanoBRET Fold Response ([3]; 1μM tracer): 1.01
- NanoBRET Fold Response ([4]; 0.1μM tracer): 0.93
- NanoBRET Fold Response ([4]; 1μM tracer): 0.91
- NanoBRET Fold Response ([5]; 0.1μM tracer): 1.03
- NanoBRET Fold Response ([5]; 1μM tracer): 1.03
